Publication PMC7370299, “Inhibition of Ovarian Cancer Cell Spheroid Formation by Synthetic Peptides Derived from Nectin-4” (International Journal of Molecular Sciences, 2020)

Columns and labels:
NIH:OVCAR5 cells [1] = conditions: 150 µg/mL peptide N4-P10 or 2 µg/mL puromycin, 250 nM Cytotox Green, 72 h, quadruplicate
Protocol: As a positive control for cytotoxicity, 2 µg/mL puromycin was used.

NIH:OVCAR5 cells [2] = experiment: Real-time spheroid formation, round-bottom ultra-low attachment plates, IncuCyte Zoom time-lapse, CellProfiler area; assay type: cell-based, human; conditions: for effect on spheroid formation (spheroid size, time-lapse): 96-well round-bottom ultra-low attachment plates, IncuCyte Zoom, first 24 h, DMSO control; for inhibition of spheroid formation at 18 µg/mL: peptide 18 µg/mL; for spheroid contraction / compact spheroid formation, average spheroid area over time: quadruplicate; for cell-cell adhesion at early time points of spheroid formation: before ~6 h, time-lapse imaging
Protocol: (§1) Confluent monolayers of ovarian cancer cell lines (NIH:OVCAR5, N4-KD-VB9, or CAOV3) were detached from the tissue culture flasks using 0.05% Trypsin (ThermoFisher Scientific, Waltham, MA, USA) and resuspended at a concentration of 1.0 × 10^5 cells/mL in complete media. Each well of a 96-well round-bottom ultra-low attachment plate (Corning, Corning NY, USA) was seeded with 50 ul of the resulting suspension. In most cases, the experiments were conducted with eight technical replicates at each condition. The plates were then placed in the gantry of the IncuCyte® Zoom (Sartorius, Ann Arbor, MI, USA) live cell analysis system and incubated at 37 °C in 5% CO2 for 24–72 h, as indicated. Photographs were taken at ~15 min increments for a total of no less than 48 h for the NIH:OVCAR5 cell lines or up to 72 h for the CAOV3 cell line. The initial photographs (t = 0) were taken 10–25 min after the cells were plated, at which time the cells had gravitated to the bottom of the well and were initiating the cell–cell attachments. The resulting footage was analyzed to determine the change in the area of the spheroid aggregates over time. The images were binarized to black and white, and the sum of the area of the small aggregates (black objects) in pixels was determined via the CellProfiler^TM workflow described below. Each image was normalized to the same dimensions, so that the areas could be compared.
Experiments were then repeated using round-bottom ultra-low attachment plates in which the cells were added to the wells containing the peptides at a final concentration of 150 µg/mL. The plates were placed in the IncuCyte® Zoom instrument for 24-48 h of live cell imaging, as described above. Experiments with the peptides selected for further study were performed in triplicate, with 8–16 technical replicates at each treatment condition.
NIH:OVCAR5 cells were added to wells containing from 9 to 150 µg/mL of peptide N4-P10 or peptide N4-P10S, or DMSO control, and then the formation of spheroids was monitored via the IncuCyte® Zoom instrument. The resulting footage was analyzed with the CellProfiler^TM pipeline described below.
A simple four-step CellProfiler™ (open source, Broad Institute, www.cellprofiler.org) pipeline was used to delineate the biologically relevant image contents and to quantify the area of spheroids over time. As part of the CellProfiler™ workflow, cellular edges were enhanced using the Sobel method, the images were converted to binary via Otsu method thresholding, and the area of occupied pixels as a function of overall image size was recorded. The resulting values were exported for analysis and visualization in the R statistical programming language. The values were averaged and the mean with the standard error of the mean (SEM) was determined and graphed. Experiments were routinely performed with eight replicates for each condition, and repeated a minimum of two times on separate days. Since many photographs were taken during the course of each experiment (approximately every 15 min) and the SEM was very small, it is difficult to see the small error bars in the graphs. For this reason, the values for each experimental SEM were included in the figure legends.

CAOV3 cells = experiment: as above; assay type: cell-based, human; conditions: peptide 150 µg/mL; for effect on spheroid formation of CAOV3 cells: round-bottom ultra-low attachment plates, 72 h, quadruplicate, DMSO control
Protocol: as §1
A simple four-step CellProfiler™ (open source, Broad Institute, www.cellprofiler.org) pipeline was used to delineate the biologically relevant image contents and to quantify the area of spheroids over time. As part of the CellProfiler™ workflow, cellular edges were enhanced using the Sobel method, the images were converted to binary via Otsu method thresholding, and the area of occupied pixels as a function of overall image size was recorded. The resulting values were exported for analysis and visualization in the R statistical programming language. The values were averaged and the mean with the standard error of the mean (SEM) was determined and graphed. […]

NIH:OVCAR5 cells [3] = experiment: Initial screening of Nectin-4 peptides for spheroid formation, flat-bottom ultra-low attachment plates, manual photographs; assay type: cell-based, human; conditions: peptide 150 µg/mL, 96-well flat-bottom ultra-low attachment plates, photographed at 24 and 48 h, 8 technical replicates, data not shown
Protocol: Twenty-one peptides of 14 amino acids in length encompassing the extracellular domain of Nectin-4 (Figure 2 and Table 1) were synthesized as previously described. The peptides were initially screened at a concentration of 150 µg/mL in 96-well flat-bottom ultra-low attachment plates to identify the section(s) of Nectin-4 that are active in ovarian cancer cell aggregation and spheroid formation. NIH:OVCAR5 cells and peptides were seeded into the plates and manually photographed at 24 and 48 h time points. […] However, the cells treated with the other 18 peptides produced spheroids that appeared to be similar in size to the untreated control cells.
For the initial screening of the twenty-one Nectin-4 peptides, 50 ul of the peptides at 300 µg/mL (for a final working concentration of 150 µg/mL peptide per well) in complete media were added to 96-well flat-bottom ultra-low attachment plates (Corning, Corning, NY, USA). DMSO was used as a negative control. Fifty microliters of NIH:OVCAR5 cells at a concentration of 1.0 × 10^5 cells/mL in complete media were added to each well. The plates were then incubated at 37 °C in 5% CO2 for 48 h, with photographs taken manually at 24 and 48 h on a Nikon® TE200 microscope. A single screening experiment was conducted with 8 technical replicates at each condition to determine which peptides had the most significant effect on spheroid formation.

recombinant Nectin-1 = conditions: ovarian cancer cell adhesion to recombinant Nectin-1, short-term binding assay, previous study ref 15; cited from earlier work
Source text: In our previous study, peptides N4-P10 and N4-P22 both inhibited cell adhesion by approximately 50%; however, the inhibition of spheroid formation by these two peptides was more disparate, with peptide N4-P10 almost completely inhibiting spheroid formation. In contrast, ...

[4] = peptide 150 µg/mL, 24 h, versus DMSO control

Row | Compound | cytotoxic effect (cell death, integrated fluorescence intensity) (NIH:OVCAR5 cells [1]) | effect on spheroid formation (spheroid size, time-lapse) (NIH:OVCAR5 cells [2]; peptide 150 µg/mL) | effect on spheroid formation of CAOV3 cells (CAOV3 cells) | inhibition of spheroid formation at 18 µg/mL (NIH:OVCAR5 cells [2]; 24 h, versus DMSO control) | spheroid contraction / compact spheroid formation, average spheroid area over time (NIH:OVCAR5 cells [2]; [4]) | cell-cell adhesion at early time points of spheroid formation (NIH:OVCAR5 cells [2]; peptide 150 µg/mL) | effect on formation of spheroids (initial screen) (NIH:OVCAR5 cells [3]) | inhibition of cell adhesion to Nectin-1 (recombinant Nectin-1) | further results
1 | COc1ccc(C[C@H](N)C(=O)N[C@H]2[C@@H](O)[C@H](n3cnc4c(N(C)C)ncnc43)O[C@@H]2CO)cc1 [puromycin, reference compound] | essentially all died within 24 h | – | – | – | – | – | – | – | –
2 | EVKGTTSSRSFKHS [N4-P14, Nectin-4 extracellular domain peptide, AA 186-199] | – | no effect on spheroid formation | – | – | – | – | – | – | –
3 | QARLRLRVLVPPLP [N4-P10, Nectin-4 extracellular domain peptide, AA 138-151] | negligible | most dramatic effect on spheroid formation | inhibited the spheroid formation of CAOV3 cells | marginal effect of inhibiting spheroid formation | did not form compact spheroids | appeared to inhibit cell–cell adhesion | significantly impeded the formation of spheroids | approximately 50% | size / packing of CAOV3 multicellular aggregates (CAOV3 cells; after 72 h of incubation, CellProfiler area): not as tightly packed as the spheroids that were formed in the presence of peptide N4-P10S or the DMSO control; inhibition of spheroid formation at 37.5 to 150 µg/mL (NIH:OVCAR5 cells [2]; peptide 37.5 to 150 µg/mL, 24 h): almost complete inhibition of spheroid formation
4 | SGKQVDLVSASV [N4-P27, Nectin-4 peptide, AA 339-350, adjacent to membrane] | – | significant impact on the formation of spheroids | – | – | – | – | significantly impeded the formation of spheroids | did not inhibit ovarian cancer cell adhesion to recombinant Nectin-1 | inhibition of spheroid formation compared to the control (NIH:OVCAR5 cells [2]; peptide 150 µg/mL, spheroid area at 24 h): almost forty percent
5 | WTRLDGPLPSGVRV [N4-P22, Nectin-4 extracellular domain peptide, AA 282-295] | – | more modest inhibition of spheroid formation | – | – | – | appeared to inhibit cell–cell adhesion | significantly impeded the formation of spheroids | approximately 50% | –
6 | RPVQLALPRLVRPL [N4-P10S, scrambled version of peptide N4-P10 used as a control peptide, reference compound] | – | – | formed aggregates over 24 h that contracted into more compact spheroids after 72 h | no effect compared to the DMSO control | visually and quantitatively similar to that of the untreated controls | – | – | – | change in formation of spheroids at any concentration (NIH:OVCAR5 cells [2]; peptide 9-150 µg/mL, 24 h, versus DMSO control): no quantifiable change in the formation of spheroids compared with the control
